US7381698B2, “Methods for treatment of acute pancreatitis” (ChiRhoClin, Inc., priority 2003, dated 2008)
Where no end group is shown, it is not given here.

How the values were obtained:
patients undergoing ERCP = assay: Return to pre-ERCP activity levels and return to work in ERCP patients; format: in vivo, human
Text: Additional secondary efficacy variables assessed were return to baseline (pre-ERCP levels of activity) and the time in days to return of pre-ERCP activity levels. There was a small difference in the percentage of patients reporting return to baseline activity within the follow-up period (2 to 4 days post-ERCP) favoring the placebo group (p=0.0230) (49.78% vs. 42.09%). Interims of the mean number of days required to achieve pre-ERCP activity levels, was 0.6 (±1.0) for the sPS group and 0.7 (±0.9) for the placebo group. An attempt was made to obtain information on return to work. Relatively few data points were able to be collected, however, because a large percentage of patients were not working pre-ERCP (retired, too ill, etc.) among the 185 patients (95 in the sPS group and 90 in the placebo group) providing relevant responses for this variable, 46.32% of sPS patients and 50.00% of placebo patients reported returning to work within the follow-up period.

[1] = test system: post-ERCP pancreatitis in patients undergoing ERCP; assay: Randomized, double-blind, placebo controlled study in ERCP patients: incidence and severity of post-ERCP pancreatitis; format: in vivo, human
Text: Pancreatitis is the most common medically significant complication following Endoscopic Retrograde Cholangio-Pancreatography ([…]) procedures. The symptoms and pathophysiology of post-ERCP pancreatitis and acute pancreatitis are identical, and patients at risk for postERCP pancreatitis or suffering early signs of the condition provide good data for evaluation of therapies for acute pancreatitis. An evaluation of the clinical efficacy of dosages of secretin to treat or prevent the onset of pancreatitis in patients undergoing ERCP is described below.
A total of 979 ERCP patients were randomized, received study drug and were evaluable for efficacy. The demographic profiles of the patients who were randomized and received treatment with study drug by treatment group are summarized in Table 1.
The primary efficacy variable was the overall incidence of post-ERCP pancreatitis.
The difference in the incidence of post-ERCP pancreatitis between the two treatment groups in favor of the sPS treated patients was highly significant. The p-value of 0.0161 was sufficient to allow the study to be discontinued on the basis of the planned interim analysis of approximately 1,000 evaluable patients. The severity of the cases of post-ERCP pancreatitis, which did occur in each treatment group is depicted in Table 4 below.
The frequency of post-ERCP pancreatitis was evaluated in numerous patient sub-populations defined by the types of procedures performed during the ERCP.

[2] = number of cases (% of 44 pancreatitis cases), N = 488/44

## synthetic porcine secretin (HSDGTFTSELSRLRDSARLQRLLQGLV; not fully specified; ends and bridges not checked; UniProt P63298 33-59, looked up) [SPS, Study drug; abbreviation not defined]
Patients undergoing ERCP; mean (±SD)
  mean number of days required to achieve pre-ERCP activity levels: 0.6 (±1.0) days
Patients undergoing ERCP; within the follow-up period, 95 patients in the sPS group, not significant
  patients reporting returning to work: 46.32%
[1]; [2]
  Post-ERCP Pancreatitis Severity Rating (%): Severe: 1 (2.27) %
  Post-ERCP Pancreatitis Severity Rating (%): Unknown: 7 (15.91) %
[1]; number of cases (% of 44 pancreatitis cases), N = 488/44, overall p 0.6278
  Post-ERCP Pancreatitis Severity Rating (%): Total: 44 (100.0) %
[1]; number of cases (% of 44 pancreatitis cases), N = 488/44, p 0.117
  Post-ERCP Pancreatitis Severity Rating (%): Moderate: 9 (20.45) %
[1]; number of cases (% of 44 pancreatitis cases), N = 488/44, p 0.289
  Post-ERCP Pancreatitis Severity Rating (%): Minimal: 13 (29.55) %
[1]; number of cases (% of 44 pancreatitis cases), N = 488/44, p 0.590
  Post-ERCP Pancreatitis Severity Rating (%): Mild: 14 (31.82) %
[1]; number of patients (%), N = 488
  Overall Incidence of Post-ERCP Pancreatitis, No (%): 444 (90.98) %
[1]; number of patients (%), N = 488, p 0.0161 vs placebo, Fisher Exact Test
  Overall Incidence of Post-ERCP Pancreatitis, Yes (%): 44 (9.02) %
[1]; sub-population Cannulation of CBD, N = 361
  Incidence of Post-ERCP Pancreatitis, No (%): 334 (92.52) %
[1]; sub-population Cannulation of CBD, N = 361, p 0.0010
  Incidence of Post-ERCP Pancreatitis, Yes (%): 27 (7.48) %
[1]; sub-population Cannulation of Pancreatic Duct, N = 220
  Incidence of Post-ERCP Pancreatitis, No (%): 190 (86.36) %
[1]; sub-population Cannulation of Pancreatic Duct, N = 220, p 0.1237
  Incidence of Post-ERCP Pancreatitis, Yes (%): 30 (13.64) %
[1]; sub-population Manometry of CBD, N = 19
  Incidence of Post-ERCP Pancreatitis, No (%): 15 (78.95) %
[1]; sub-population Manometry of CBD, N = 19, p 0.0819
  Incidence of Post-ERCP Pancreatitis, Yes (%): 4 (21.05) %
[1]; sub-population Manometry of CBD, N = 19, p 0.0819, listed as sPS
  Incidence of Post-ERCP Pancreatitis, Yes (%): 21.05%
[1]; sub-population Manometry of Pancreatic Duct, N = 11
  Incidence of Post-ERCP Pancreatitis, No (%): 6 (54.58) %
[1]; sub-population Manometry of Pancreatic Duct, N = 11, p 0.3665
  Incidence of Post-ERCP Pancreatitis, Yes (%): 5 (45.45) %
[1]; sub-population Sphincterotomy of CBD, N = 140
  Incidence of Post-ERCP Pancreatitis, No (%): 133 (95.00) %
[1]; sub-population Sphincterotomy of CBD, N = 140, p 0.0001
  Incidence of Post-ERCP Pancreatitis, Yes (%): 7 (5.00) %
[1]; sub-population Sphincterotomy of Pancreatic Duct, N = 26
  Incidence of Post-ERCP Pancreatitis, No (%): 14 (57.85) %
[1]; sub-population Sphincterotomy of Pancreatic Duct, N = 26, p 0.1666
  Incidence of Post-ERCP Pancreatitis, Yes (%): 12 (46.15) %
[1]; sub-population Stent Insertion into CBD, N = 108
  Incidence of Post-ERCP Pancreatitis, No (%): 105 (97.22) %
[1]; sub-population Stent Insertion into CBD, N = 108, p 0.0856
  Incidence of Post-ERCP Pancreatitis, Yes (%): 3 (2.78) %
[1]; sub-population Stent Insertion into CBD, N = 108, p 0.0856, listed as sPS
  Incidence of Post-ERCP Pancreatitis, Yes (%): 2.78%
[1]; sub-population Stent Insertion into Pancreatic Duct, N = 23
  Incidence of Post-ERCP Pancreatitis, No (%): 18 (78.26) %
[1]; sub-population Stent Insertion into Pancreatic Duct, N = 23, p 1.0000
  Incidence of Post-ERCP Pancreatitis, Yes (%): 5 (21.74) %
[1]; sub-population Stent Insertion into Pancreatic Duct, N = 23, p 1.0000, listed as sPS
  Incidence of Post-ERCP Pancreatitis, Yes (%): 21.7%
[1]; sub-population Stent Removal from CBD, N = 58
  Incidence of Post-ERCP Pancreatitis, No (%): 57 (98.28) %
[1]; sub-population Stent Removal from CBD, N = 58, p 0.6185
  Incidence of Post-ERCP Pancreatitis, Yes (%): 1 (1.72) %
[1]; sub-population Stent Removal from Pancreatic Duct, N = 17
  Incidence of Post-ERCP Pancreatitis, No (%): 15 (88.24) %
[1]; sub-population Stent Removal from Pancreatic Duct, N = 17, p 1.0000
  Incidence of Post-ERCP Pancreatitis, Yes (%): 2 (11.76) %
[1]; sub-population Stone Extraction (Balloon), N = 55
  Incidence of Post-ERCP Pancreatitis, No (%): 51 (92.73) %
[1]; sub-population Stone Extraction (Balloon), N = 55, p 1.0000
  Incidence of Post-ERCP Pancreatitis, Yes (%): 4 (7.27) %
[1]; sub-population Stone Extraction (Basket), N = 35
  Incidence of Post-ERCP Pancreatitis, No (%): 34 (97.14) %
[1]; sub-population Stone Extraction (Basket), N = 35, p 0.2298
  Incidence of Post-ERCP Pancreatitis, Yes (%): 1 (2.86) %
